Reference: US9738634B2, “Heterocyclic amide compound and herbicide” (SYNGENTA PARTICIPATIONS AG, priority 2013, dated 2017)

Tests used:
Format in all cases: in vivo
Details in all cases: treatment dosage 320 g/ha
crabgrass [1] = assay: Test Example 3: weedkilling efficacy through soil treatment; D: crabgrass
Procedure, shortened: (§1)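 Crop and weed responses were judged three weeks after a uniform surface spray of the water-diluted emulsion at the given g/ha rate. Seeds sat beneath about 1.5 cm of sterilized diluvial soil, and boxes stood in a greenhouse at 25 to 30° C.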

black-grass [2] = assay: Test Example 4: weedkilling efficacy by foliar treatment; H: black-grass
Procedure, shortened: (§2)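 Seeds are spot-sown into sterilized diluvial soil and covered with about 1.5 cm of soil. After 14 days' greenhouse growth at 25 to 30° C, plants are sprayed on stems and leaves with diluted emulsion at the stated g/ha rate, then scored at 3 weeks.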

barnyard grass [3] = assay: Test Example 3: weedkilling efficacy through soil treatment; F: barnyard grass
Procedure, shortened: as §1

transplanted rice = assay: Test Example 1: preemergent weed treatment in the submerged state, effect on crop; a: transplanted rice
Procedure, shortened: (§3)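 Emulsion diluted with water to the specified per-hectare dosage is applied onto flood water (4 cm) over alluvial soil on the sowing day, with barnyard grass, bulrush and pondweed seeded and rice (2.5-leaf) transplanted; plants grow at 25–30 °C and are rated at 3 weeks.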

Italian ryegrass [4] = assay: Test Example 3: weedkilling efficacy through soil treatment; I: Italian ryegrass
Procedure, shortened: as §1

birds-eye speedwell [5] = assay: Test Example 3: weedkilling efficacy through soil treatment; p: birds-eye speedwell
Procedure, shortened: as §1

common wind-grass [6] = assay: Test Example 4: weedkilling efficacy by foliar treatment; J: common wind-grass
Procedure, shortened: as §2

soybean [7] = assay: Test Example 4: foliar treatment, effect on crop; d: soybean
Procedure, shortened: as §2

beet [8] = assay: Test Example 3: soil treatment, effect on crop; f: beet
Procedure, shortened: as §1

corn [9] = assay: Test Example 3: soil treatment, effect on crop; c: corn
Procedure, shortened: as §1

green foxtail [10] = assay: Test Example 4: weedkilling efficacy by foliar treatment; E: green foxtail
Procedure, shortened: as §2

bulrush [11] = assay: Test Example 1: weedkilling efficacy, preemergent weed treatment in the submerged state; B: bulrush
Procedure, shortened: as §3

directly sown rice [12] = assay: Test Example 4: foliar treatment, effect on crop; b: directly sown rice
Procedure, shortened: as §2

birds-eye speedwell [13] = assay: Test Example 4: weedkilling efficacy by foliar treatment; p: birds-eye speedwell
Procedure, shortened: as §2

crabgrass [14] = assay: Test Example 4: weedkilling efficacy by foliar treatment; D: crabgrass
Procedure, shortened: as §2

wild oat [15] = assay: Test Example 4: weedkilling efficacy by foliar treatment; G: wild oat
Procedure, shortened: as §2

green foxtail [16] = assay: Test Example 3: weedkilling efficacy through soil treatment; E: green foxtail
Procedure, shortened: as §1

chickweed [17] = assay: Test Example 3: weedkilling efficacy through soil treatment; N: chickweed
Procedure, shortened: as §1

oval-leafed pondweed [18] = assay: Test Example 2: weedkilling efficacy, growth period weed treatment in the submerged state; C: oval-leafed pondweed
Procedure, shortened: (§4)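 First, alluvial soil in pots is flooded to 4 cm and mixed seed is sown. Next, plants grow in a greenhouse at 25 to 30° C until the 1-2 leaf stage. Then diluted emulsion is applied onto the water surface at the given g/ha rate, and injury is assessed after 3 weeks.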

redroot pigweed [19] = assay: Test Example 4: weedkilling efficacy by foliar treatment; L: redroot pigweed
Procedure, shortened: as §2

barnyard grass [20] = assay: Test Example 2: weedkilling efficacy, growth period weed treatment in the submerged state; A: barnyard grass
Procedure, shortened: as §4

oval-leafed pondweed [21] = assay: Test Example 1: weedkilling efficacy, preemergent weed treatment in the submerged state; C: oval-leafed pondweed
Procedure, shortened: as §3

rapeseed [22] = assay: Test Example 3: soil treatment, effect on crop; g: rapeseed
Procedure, shortened: as §1

chickweed [23] = assay: Test Example 4: weedkilling efficacy by foliar treatment; N: chickweed
Procedure, shortened: as §2

black-grass [24] = assay: Test Example 3: weedkilling efficacy through soil treatment; H: black-grass
Procedure, shortened: as §1

fig-leafed goosefoot = assay: Test Example 4: weedkilling efficacy by foliar treatment; M: fig-leafed goosefoot
Procedure, shortened: as §2

wheat [25] = assay: Test Example 3: soil treatment, effect on crop; e: wheat
Procedure, shortened: as §1

bulrush [26] = assay: Test Example 2: weedkilling efficacy, growth period weed treatment in the submerged state; B: bulrush
Procedure, shortened: as §4

Indian mallow [27] = assay: Test Example 4: weedkilling efficacy by foliar treatment; K: Indian mallow
Procedure, shortened: as §2

Italian ryegrass [28] = assay: Test Example 4: weedkilling efficacy by foliar treatment; I: Italian ryegrass
Procedure, shortened: as §2

barnyard grass [29] = assay: Test Example 1: weedkilling efficacy, preemergent weed treatment in the submerged state; A: barnyard grass
Procedure, shortened: as §3

rapeseed [30] = assay: Test Example 4: foliar treatment, effect on crop; g: rapeseed
Procedure, shortened: as §2

barnyard grass [31] = assay: Test Example 4: weedkilling efficacy by foliar treatment; F: barnyard grass
Procedure, shortened: as §2

soybean [32] = assay: Test Example 3: soil treatment, effect on crop; d: soybean
Procedure, shortened: as §1

common wind-grass [33] = assay: Test Example 3: weedkilling efficacy through soil treatment; J: common wind-grass
Procedure, shortened: as §1

wild oat [34] = assay: Test Example 3: weedkilling efficacy through soil treatment; G: wild oat
Procedure, shortened: as §1

catchweed [35] = assay: Test Example 4: weedkilling efficacy by foliar treatment; O: catchweed
Procedure, shortened: as §2

corn [36] = assay: Test Example 4: foliar treatment, effect on crop; c: corn
Procedure, shortened: as §2

catchweed [37] = assay: Test Example 3: weedkilling efficacy through soil treatment; O: catchweed
Procedure, shortened: as §1

directly sown rice [38] = assay: Test Example 3: soil treatment, effect on crop; b: directly sown rice
Procedure, shortened: as §1

redroot pigweed [39] = assay: Test Example 3: weedkilling efficacy through soil treatment; L: redroot pigweed
Procedure, shortened: as §1

beet [40] = assay: Test Example 4: foliar treatment, effect on crop; f: beet
Procedure, shortened: as §2

Indian mallow [41] = assay: Test Example 3: weedkilling efficacy through soil treatment; K: Indian mallow
Procedure, shortened: as §1

wheat [42] = assay: Test Example 4: foliar treatment, effect on crop; e: wheat
Procedure, shortened: as §2

Structure (SMILES): CCOc1cc(C(F)(F)F)cc(NC(=O)C(C)(C)N2COC(C)=C(c3ccccc3)C2=O)n1 [B-2-50]
- D (crabgrass) weedkilling efficacy grade (crabgrass [1]): 5 (weed kill ratio 90% or more, (practically complete withering))
- H (black-grass) weedkilling efficacy grade (black-grass [2]): 1 (weed kill ratio 5% or more, less than 20%)
- F (barnyard grass) weedkilling efficacy grade (barnyard grass [3]): 4 (weed kill ratio 70% or more, less than 90%)
- a (transplanted rice) effect on crop grade (transplanted rice): 0 (weed kill ratio 5% or less (practically no effect))
- I (Italian ryegrass) weedkilling efficacy grade (Italian ryegrass [4]): 3 (weed kill ratio 40% or more, less than 70%)
- P (birds-eye speedwell) weedkilling efficacy grade (birds-eye speedwell [5]): 0 (weed kill ratio 5% or less (practically no effect))
- J (common wind-grass) weedkilling efficacy grade (common wind-grass [6]): 1 (weed kill ratio 5% or more, less than 20%)
- d (soybean) effect on crop grade (soybean [7]): 0 (weed kill ratio 5% or less (practically no effect))
- f (beet) effect on crop grade (beet [8]): 0 (weed kill ratio 5% or less (practically no effect))
- c (corn) effect on crop grade (corn [9]): 1 (weed kill ratio 5% or more, less than 20%)
- E (green foxtail) weedkilling efficacy grade (green foxtail [10]): 2 (weed kill ratio 20% or more, less than 40%)
- B (bulrush) weedkilling efficacy grade (bulrush [11]): 5 (weed kill ratio 90% or more, (practically complete withering))
- b (directly sown rice) effect on crop grade (directly sown rice [12]): 0 (weed kill ratio 5% or less (practically no effect))
- P (birds-eye speedwell) weedkilling efficacy grade (birds-eye speedwell [13]): 0 (weed kill ratio 5% or less (practically no effect))
- D (crabgrass) weedkilling efficacy grade (crabgrass [14]): 2 (weed kill ratio 20% or more, less than 40%)
- G (wild oat) weedkilling efficacy grade (wild oat [15]): 0 (weed kill ratio 5% or less (practically no effect))
- E (green foxtail) weedkilling efficacy grade (green foxtail [16]): 5 (weed kill ratio 90% or more, (practically complete withering))
- N (chickweed) weedkilling efficacy grade (chickweed [17]): 0 (weed kill ratio 5% or less (practically no effect))
- C (oval-leafed pondweed) weedkilling efficacy grade (oval-leafed pondweed [18]): 4 (weed kill ratio 70% or more, less than 90%)
- L (redroot pigweed) weedkilling efficacy grade (redroot pigweed [19]): 0 (weed kill ratio 5% or less (practically no effect))
- A (barnyard grass) weedkilling efficacy grade (barnyard grass [20]): 5 (weed kill ratio 90% or more, (practically complete withering))
- C (oval-leafed pondweed) weedkilling efficacy grade (oval-leafed pondweed [21]): 5 (weed kill ratio 90% or more, (practically complete withering))
- g (rapeseed) effect on crop grade (rapeseed [22]): 0 (weed kill ratio 5% or less (practically no effect))
- N (chickweed) weedkilling efficacy grade (chickweed [23]): 0 (weed kill ratio 5% or less (practically no effect))
- H (black-grass) weedkilling efficacy grade (black-grass [24]): 2 (weed kill ratio 20% or more, less than 40%)
- M (fig-leafed goosefoot) weedkilling efficacy grade (fig-leafed goosefoot): 3 (weed kill ratio 40% or more, less than 70%)
- e (wheat) effect on crop grade (wheat [25]): 0 (weed kill ratio 5% or less (practically no effect))
- B (bulrush) weedkilling efficacy grade (bulrush [26]): 4 (weed kill ratio 70% or more, less than 90%)
- K (Indian mallow) weedkilling efficacy grade (Indian mallow [27]): 1 (weed kill ratio 5% or more, less than 20%)
- I (Italian ryegrass) weedkilling efficacy grade (Italian ryegrass [28]): 1 (weed kill ratio 5% or more, less than 20%)
- A (barnyard grass) weedkilling efficacy grade (barnyard grass [29]): 5 (weed kill ratio 90% or more, (practically complete withering))
- g (rapeseed) effect on crop grade (rapeseed [30]): 0 (weed kill ratio 5% or less (practically no effect))
- F (barnyard grass) weedkilling efficacy grade (barnyard grass [31]): 0 (weed kill ratio 5% or less (practically no effect))
- d (soybean) effect on crop grade (soybean [32]): 0 (weed kill ratio 5% or less (practically no effect))
- J (common wind-grass) weedkilling efficacy grade (common wind-grass [33]): 5 (weed kill ratio 90% or more, (practically complete withering))
- G (wild oat) weedkilling efficacy grade (wild oat [34]): 0 (weed kill ratio 5% or less (practically no effect))
- O (catchweed) weedkilling efficacy grade (catchweed [35]): 0 (weed kill ratio 5% or less (practically no effect))
- c (corn) effect on crop grade (corn [36]): 0 (weed kill ratio 5% or less (practically no effect))
- O (catchweed) weedkilling efficacy grade (catchweed [37]): 0 (weed kill ratio 5% or less (practically no effect))
- b (directly sown rice) effect on crop grade (directly sown rice [38]): 1 (weed kill ratio 5% or more, less than 20%)
- L (redroot pigweed) weedkilling efficacy grade (redroot pigweed [39]): 2 (weed kill ratio 20% or more, less than 40%)
- f (beet) effect on crop grade (beet [40]): 0 (weed kill ratio 5% or less (practically no effect))
- K (Indian mallow) weedkilling efficacy grade (Indian mallow [41]): 0 (weed kill ratio 5% or less (practically no effect))
- e (wheat) effect on crop grade (wheat [42]): 0 (weed kill ratio 5% or less (practically no effect))
